US5053415A, “Pyridine derivatives” (Imperial Chemical Industries PLC, priority 1988, dated 1991)

Columns and labels:
[1] = target: T1, TXA2 synthase (Homo sapiens, UniProt P24557); experiment: test (e): human platelet microsomal TXA2 synthase inhibition (conversion of arachidonic acid to TXB2); type: biochemical
T1 construct: human platelet microsomal TXA2 synthase preparation; from tissue; host or cells: human platelet microsomes
T1 sequence (P24557 1-533): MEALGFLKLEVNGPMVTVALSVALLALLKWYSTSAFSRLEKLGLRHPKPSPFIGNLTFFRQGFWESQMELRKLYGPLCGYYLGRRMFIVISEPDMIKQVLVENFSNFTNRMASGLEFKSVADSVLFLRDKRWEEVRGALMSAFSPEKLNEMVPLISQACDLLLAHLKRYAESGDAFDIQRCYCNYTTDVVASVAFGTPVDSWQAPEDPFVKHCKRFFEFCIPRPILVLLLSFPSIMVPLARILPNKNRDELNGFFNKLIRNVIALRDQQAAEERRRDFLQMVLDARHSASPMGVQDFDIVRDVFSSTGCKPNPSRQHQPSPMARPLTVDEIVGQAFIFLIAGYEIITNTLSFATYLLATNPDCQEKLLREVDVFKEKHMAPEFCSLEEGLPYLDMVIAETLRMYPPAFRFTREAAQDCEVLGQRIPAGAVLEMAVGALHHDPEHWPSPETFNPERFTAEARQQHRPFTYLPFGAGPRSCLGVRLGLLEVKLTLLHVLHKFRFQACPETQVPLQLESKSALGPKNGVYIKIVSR

[2] = target: T2, thromboxane receptor (Homo sapiens, UniProt P21731); experiment: test (b): blood platelet aggregation test, U46619-stimulated aggregation of human citrated platelet-rich plasma; type: cell-based; conditions: averaged over several concentrations
T2 construct: human, citrated, platelet-rich plasma; endogenous in cells; host or cells: human platelets in citrated platelet-rich plasma
T2 sequence (P21731 1-343): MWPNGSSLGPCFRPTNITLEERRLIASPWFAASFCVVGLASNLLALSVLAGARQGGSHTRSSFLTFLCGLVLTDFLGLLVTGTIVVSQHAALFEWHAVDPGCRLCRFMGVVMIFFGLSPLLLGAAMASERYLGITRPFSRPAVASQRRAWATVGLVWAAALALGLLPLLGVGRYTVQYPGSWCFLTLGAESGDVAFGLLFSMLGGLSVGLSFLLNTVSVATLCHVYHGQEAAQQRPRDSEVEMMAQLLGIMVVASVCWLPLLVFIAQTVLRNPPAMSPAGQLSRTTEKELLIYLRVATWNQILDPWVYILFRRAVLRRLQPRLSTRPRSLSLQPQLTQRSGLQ
Source text: (b) a blood platelet aggregation test based on that described by Born (Nature, 1962, 194, 927-929) and involving:
(i) aggregating human, citrated, platelet-rich plasma by addition of the TXA2 mimetic agent U46619 so that a dose-response curve is generated;
(ii) generating a dose-response curve for U46619 stimulated platlet aggregation in the presence of increasing amounts of test compound (generally in the range 10^-5 M to 10^-10 M); and
(iii) calculating a KB value indicating potency of TXA2 antagonism for the test compound, averaged over several concentrations, from the calculated 50% response value for U46619 aggregation in the presence and absence of test compound; or […]

`COc1ccc(OC(C)(C)[C@H]2OC[C@@H](C/C=C\CCC(=O)O)[C@@H](c3cccnc3)O2)cc1` (relative stereo) [Example 1, 4(Z)-6[(2,4,5-cis)-2-(1-(4-methoxyphenoxy)-1-methylethyl)-4-(3-pyridyl)-1,3-dioxan-5-yl]-hexenoic acid] showed an IC50 [1] of 40 nM and a Kb [2] of 300 nM.
